Assay results: patent US3943129A, “7-Amino-3-(1,3,4-thiadiazolinylthio-methyl) cephalosporins” (SmithKline Corporation, priority 1974, dated 1976)
In brackets after ≈: the same amount, converted by molar mass.

Key:
[1] = system: E. coli HH 33779; assay: Minimum inhibitory concentration (MIC); conditions: Escherichia coli, HH33779
[2] = system: Serrantia marcescens ATCC 13880; assay: Minimum inhibitory concentration (MIC)
[3] = system: Strep. faecalis HH 34358; assay: Minimum inhibitory concentration (MIC); conditions: Enterococcus faecalis, HH34358
[4] = system: Entero. aerogenes ATCC13048; assay: Minimum inhibitory concentration (MIC); conditions: Klebsiella aerogenes
[5] = system: Sal. paratyphi ATCC 12176; assay: Minimum inhibitory concentration (MIC); format: cell-based; conditions: Salmonella enterica
[6] = system: Kleb. pneumo. SK 4200; assay: Minimum inhibitory concentration (MIC)
[7] = system: E. coli SK 12140; assay: In vivo ED50 in infected mice, subcutaneous; conditions: Escherichia coli, SK12140, in Mus musculus, sc
[8] = system: Kleb. pneumo. SK 4200; assay: In vivo ED50 in infected mice, subcutaneous; conditions: Mus musculus, sc
[9] = system: Pseudomonas sp. HH 63; assay: Minimum inhibitory concentration (MIC); conditions: SP.HH63
[10] = system: Strep. pyog. C203; assay: Minimum inhibitory concentration (MIC)
[11] = system: Kleb. pneumo. SK 1200; assay: Minimum inhibitory concentration (MIC)
[12] = system: S. aureus SK 23390; assay: Minimum inhibitory concentration (MIC); conditions: Staphylococcus aureus, SK23390
[13] = system: S. aureus HH 127; assay: Minimum inhibitory concentration (MIC); conditions: Staphylococcus aureus, HH127
[14] = system: E. coli SK 12140; assay: Minimum inhibitory concentration (MIC); conditions: Escherichia coli, SK12140
[15] = system: Staph. aurcus villaluz; assay: Minimum inhibitory concentration (MIC)
[16] = Stability in solution; format: physicochemical; conditions: neutral or basic pH, vs any prior art compounds that were tested
[17] = Stability to copper ion; format: physicochemical; conditions: vs tested prior art compounds
[18] = system: Entero. cloaca Pa.S.L.969; assay: Minimum inhibitory concentration (MIC)
[19] = system: Kleb. pneumonia; assay: In vivo ED50 in infected mice, oral; conditions: Mus musculus
[20] = system: E. coli; assay: In vivo ED50 in infected mice, oral; conditions: Escherichia coli, in Mus musculus
[21] = system: Shig. paradys. HH 127; assay: Minimum inhibitory concentration (MIC)

SMILES	MIC [1] [µg/mL]	MIC [2] [µg/mL]	MIC [3] [µg/mL]	MIC [4] [µg/mL]	MIC [5] [µg/mL]	MIC [6] [µg/mL]	ED50 [7] [mg/kg]	ED50 [8] [mg/kg]	MIC [9] [µg/mL]	MIC [10] [µg/mL]	MIC [11] [µg/mL]	MIC [12] [µg/mL]	MIC [13] [µg/mL]	MIC [14] [µg/mL]	MIC [15] [µg/mL]	MIC [18] [µg/mL]	other results
O=C(O)C1=C(CSc2n[nH]c(=S)s2)CSC2C(NC(=O)C(O)c3ccccc3)C(=O)N12 (stereo not shown) [VII]	3.1 (≈ 6.24 µM)	200 (≈ 403 µM)	25 (≈ 50.3 µM)	12.5 (≈ 25.2 µM)	0.8 (≈ 1.61 µM)	1.6 (≈ 3.22 µM)	21.5	64	> 200	0.2 (≈ 0.403 µM)	0.8 (≈ 1.61 µM)	0.4 (≈ 0.805 µM)	0.8 (≈ 1.61 µM)	1.6 (≈ 3.22 µM)	12.5 (≈ 25.2 µM)	–	–
Cn1c(SCC2=C(C(=O)O)N3C(=O)C(NC(=O)C(O)c4ccccc4)C3SC2)n[nH]c1=O (stereo not shown) [VI]	12.5 (≈ 26.2 µM)	> 200	25 (≈ 52.4 µM)	12.5 (≈ 26.2 µM)	3.1 (≈ 6.49 µM)	–	9	21	> 200	0.1 (≈ 0.209 µM)	3.1 (≈ 6.49 µM)	0.4 (≈ 0.838 µM)	1.6 (≈ 3.35 µM)	6.3 (≈ 13.2 µM)	12.5 (≈ 26.2 µM)	–	–
NC(C(=O)NC1C(=O)N2C(C(=O)O)=C(CSc3n[nH]c(=O)[nH]3)CSC12)c1ccccc1 (stereo not shown) [Compound I]	6.3 (≈ 13.6 µM)	200 (≈ 432 µM)	50 (≈ 108 µM)	6.3 (≈ 13.6 µM)	1.6 (≈ 3.46 µM)	3.1 (≈ 6.7 µM)	2.9	7	> 200	0.1 (≈ 0.216 µM)	3.1 (≈ 6.7 µM)	1.6 (≈ 3.46 µM)	1.6 (≈ 3.46 µM)	3.1 (≈ 6.7 µM)	12.5 (≈ 27 µM)	12.5 (≈ 27 µM)	stability in solution [16]: more stable in solution at neutral or basic pH than any prior art compounds that were tested; stability to copper ion [17]: greater stability to copper ion than tested prior art compounds
NC(C(=O)NC1C(=O)N2C(C(=O)O)=C(CSc3n[nH]c(=O)[nH]3)CSC12)c1ccc(O)cc1 (stereo not shown) [Compound IV]	25 (≈ 52.2 µM)	> 200	100 (≈ 209 µM)	12.5 (≈ 26.1 µM)	6.3 (≈ 13.2 µM)	6.3 (≈ 13.2 µM)	4	2.8	> 200	0.1 (≈ 0.209 µM)	12.5 (≈ 26.1 µM)	6.3 (≈ 13.2 µM)	6.3 (≈ 13.2 µM)	6.3 (≈ 13.2 µM)	25 (≈ 52.2 µM)	–	ED50 [19]: 6.2 mg/kg; ED50 [20]: 9.5 mg/kg
O=C(O)C1=C(CSc2n[nH]c(=O)[nH]2)CSC2C(NC(=O)C(O)c3ccccc3)C(=O)N12 (stereo not shown) [V]	6.3 (≈ 13.6 µM)	> 200	50 (≈ 108 µM)	12.5 (≈ 27 µM)	1.6 (≈ 3.45 µM)	3.1 (≈ 6.69 µM)	4	8.7	> 200	0.1 (≈ 0.216 µM)	1.6 (≈ 3.45 µM)	0.4 (≈ 0.863 µM)	0.8 (≈ 1.73 µM)	3.1 (≈ 6.69 µM)	25 (≈ 53.9 µM)	12.5 (≈ 27 µM)	–
Cn1c(SCC2=C(C(=O)O)N3C(=O)C(NC(=O)C(N)c4ccccc4)C3SC2)n[nH]c1=O (stereo not shown) [II]	25 (≈ 52.5 µM)	> 200	50 (≈ 105 µM)	25 (≈ 52.5 µM)	3.1 (≈ 6.51 µM)	6.3 (≈ 13.2 µM)	12.5	11.5	> 200	0.1 (≈ 0.21 µM)	6.3 (≈ 13.2 µM)	3.1 (≈ 6.51 µM)	6.3 (≈ 13.2 µM)	12.5 (≈ 26.2 µM)	25 (≈ 52.5 µM)	50 (≈ 105 µM)	–
CCn1c(SCC2=C(C(=O)O)N3C(=O)C(NC(=O)C(N)c4ccccc4)C3SC2)n[nH]c1=O (stereo not shown) [III]	12.5 (≈ 25.5 µM)	200 (≈ 408 µM)	25 (≈ 51 µM)	25 (≈ 51 µM)	3.1 (≈ 6.32 µM)	6.3 (≈ 12.8 µM)	29	92	> 200	0.1 (≈ 0.204 µM)	6.3 (≈ 12.8 µM)	3.1 (≈ 6.32 µM)	3.1 (≈ 6.32 µM)	12.5 (≈ 25.5 µM)	25 (≈ 51 µM)	25 (≈ 51 µM)	–
CC1=C(C(=O)O)N2C(=O)[C@@H](NC(=O)[C@H](N)c3ccccc3)[C@H]2SC1 [S-II, cephalexin, reference compound]	6.3 (≈ 18.1 µM)	50 (≈ 144 µM)	50 (≈ 144 µM)	12.5 (≈ 36 µM)	3.1 (≈ 8.92 µM)	6.3 (≈ 18.1 µM)	12	25	> 200	0.1 (≈ 0.288 µM)	3.1 (≈ 8.92 µM)	1.6 (≈ 4.61 µM)	3.1 (≈ 8.92 µM)	6.3 (≈ 18.1 µM)	50 (≈ 144 µM)	6.3 (≈ 18.1 µM)	–
O=C(Cc1cccs1)N[C@@H]1C(=O)N2C(C(=O)[O-])=C(C[n+]3ccccc3)CS[C@H]12 [S-I, cephaloridine, reference compound]	6.3 (≈ 15.2 µM)	> 200	6.3 (≈ 15.2 µM)	> 200	1.6 (≈ 3.85 µM)	3.1 (≈ 7.46 µM)	6	7.6	> 200	0.1 (≈ 0.241 µM)	3.1 (≈ 7.46 µM)	0.1 (≈ 0.241 µM)	0.4 (≈ 0.963 µM)	3.1 (≈ 7.46 µM)	12.5 (≈ 30.1 µM)	> 200	MIC [21]: 1.6 µg/mL (≈ 3.85 µM)
